We go through 52 molecules from ChEMBL document CHEMBL3046639, “Syntheses of tetrahydronaphthalenes. Part II” (Tetrahedron, 1994).

Active and inactive are the calls of the source. No rule for the calls is given here.

This assay in a line: Pre-emergence herbicidal activity against narrowleaf weed at 0.5 lb/acre. It is filed as functional.
In the case of `CCS(=O)(=O)c1c([N+](=O)[O-])cc2c(c1[N+](=O)[O-])CCCC2(C)C`, the outcome was inactive.
For the molecule `CN(C)c1c([N+](=O)[O-])cc([N+](=O)[O-])c2c1C(C)(C)CCC2`, the result was inactive.
On to `CC1(C)CCCc2c(F)cc(F)cc21`, for which the outcome was inactive.
Then `CC1CCCc2cc(F)ccc21` (configuration not stated), with “inactive”.
To `CC1(C)CCCc2cc(F)c([N+](=O)[O-])cc21` belongs “inactive”.
Take `O=[N+]([O-])c1cc2c(c([N+](=O)[O-])c1F)CCCC21CCCCC1`: the outcome was inactive.
Take `CCC(=O)c1c(C)cc2c(c1C)CCCC2(C)C`: the result was inactive.
For `CC(C)C1(C)CCCc2cc(F)ccc21` (configuration not stated), the outcome was inactive.
As for `CCCN(CCC)c1c([N+](=O)[O-])cc2c(c1[N+](=O)[O-])CCCC2(C)C`, the outcome was inactive.
To `COc1c([N+](=O)[O-])cc([N+](=O)[O-])c2c1C(C)(C)CCC2` belongs “inactive”.
On to `COC(=O)c1c(C)cc2c(c1C)CCCC2(C)C`, for which the outcome was Active.
Then `COc1cc2c(cc1C(=O)O)C(C)(C)CCC2`, with “inactive”.
Then `CCSc1c([N+](=O)[O-])cc2c(c1[N+](=O)[O-])CCCC2(C)C`, with “inactive”; and `COc1cc2c(cc1C(C)=O)C(C)(C)CCC2`, with “inactive”; and `CC1(C)CCCc2c1cc([N+](=O)[O-])c(F)c2[N+](=O)[O-]`, with “inactive”.
Then `COc1c([N+](=O)[O-])cc2c(c1[N+](=O)[O-])CCCC2(C)C(C)C` (configuration not stated), with “inactive”; and `Cc1cc2c(c(C)c1C(=O)N(C)C)CCCC2(C)C`, with “inactive”.
`CC(C)C1(C)CCCc2c1cc([N+](=O)[O-])c(N(C)C)c2[N+](=O)[O-]` (configuration not stated): the outcome was inactive.
Then `CCN(CC)c1c([N+](=O)[O-])cc2c(c1[N+](=O)[O-])CCCC2(C)C`, with “inactive”; and `CCCC1(CCC)CCCc2cc(F)ccc21`, with “inactive”.
In the case of `CCC(CC)Nc1c([N+](=O)[O-])cc2c(c1[N+](=O)[O-])CCCC2(C)C`, the outcome was Active.
To `CN(C)c1cc2c(cc1[N+](=O)[O-])C(C)(C)CCC2` belongs “inactive”.
Consider `COc1c([N+](=O)[O-])cc2c(c1[N+](=O)[O-])CCCC2(C)C`, for which the result was inactive.
For the molecule `Cc1cc2c(c(C)c1C(=O)O)CCCC2(C)C`, the result was inactive.
Then `CC1(C)CCCc2c([N+](=O)[O-])cc([N+](=O)[O-])c(F)c21`, with “inactive”.
As to `CCCC1(CCC)CCCc2c1cc([N+](=O)[O-])c(F)c2[N+](=O)[O-]`, the result was inactive.
With `CCCC1(CCC)CCCc2c1cc([N+](=O)[O-])c(N(C)C)c2[N+](=O)[O-]`, the outcome was inactive.
`CCNc1c([N+](=O)[O-])cc2c(c1[N+](=O)[O-])CCCC2(C)C`: the result was inactive.
To `CCCCOC(=O)c1c(C)cc2c(c1C)CCCC2(C)C` belongs “inactive”.
`CCCC1(CCC)CCCc2cc(N(C)C)c([N+](=O)[O-])cc21`: the outcome was inactive.
To `CC(=O)c1c(C)cc2c(c1C)CCCC2(C)C` belongs “inactive”.
For `COc1cc(OC)c2c(c1)C(C)(C)CCC2`, the outcome was inactive.
Then `CCC(CC)Nc1c([N+](=O)[O-])cc2c(c1[N+](=O)[O-])CCCC2(C)C(C)C` (configuration not stated), with “inactive”; and `CNc1c([N+](=O)[O-])cc2c(c1[N+](=O)[O-])CCCC2(C)C`, with “inactive”.
As to `CC(C)c1cc(C(C)C)c2c(c1)C(C)(C)CCC2`, the result was inactive.
Consider `CC1CCCc2c1cc([N+](=O)[O-])c(F)c2[N+](=O)[O-]` (configuration not stated), for which the result was inactive.
To `CC(=O)c1c(F)cc2c(c1F)CCCC2(C)C` belongs “inactive”; to `Cc1cc2c(c(C)c1C(=O)C(Br)(Br)Br)CCCC2(C)C`, “inactive”; to `COC(=O)c1ccc(OC)c2c1CCCC2(C)C`, “inactive”.
With `COc1ccc(C(C)=O)c2c1C(C)(C)CCC2`, the outcome was inactive.
To `CCCC1(CCC)CCCc2c1cc([N+](=O)[O-])c(NC(CC)CC)c2[N+](=O)[O-]` belongs “inactive”; to `CCOC(=O)c1c(C)cc2c(c1C)CCCC2(C)C`, “inactive”; to `CC(C)C1(C)CCCc2c1cc([N+](=O)[O-])c(F)c2[N+](=O)[O-]` (configuration not stated), “inactive”.
Take `CN(C)c1c([N+](=O)[O-])cc2c(c1[N+](=O)[O-])CCCC2(C)C`: the outcome was inactive.
Then `CCC(CC)Nc1c([N+](=O)[O-])cc2c(c1[N+](=O)[O-])CCCC21CCCCC1`, with “inactive”.
For the molecule `Cc1cc(C)c2c(c1)C(C)(C)CCC2`, the outcome was inactive.
`COc1ccc(C(=O)O)c2c1C(C)(C)CCC2`: the result was inactive.
Then `Fc1ccc2c(c1)CCCC21CCCCC1`, with “inactive”; and `COc1c2c(cc(F)c1C(C)=O)C(C)(C)CCC2`, with “inactive”; and `CN(C)c1c([N+](=O)[O-])cc2c(c1[N+](=O)[O-])CCCC21CCCCC1`, with “inactive”.
To `COC(=O)c1cc2c(cc1OC)CCCC2(C)C` belongs “inactive”; to `CCC(CC)Nc1c([N+](=O)[O-])cc2c(c1[N+](=O)[O-])CCCC2C` (configuration not stated), “inactive”.
